Test [1] has as its target T1, PAPD5 (Homo sapiens, UniProt Q8NDF8).
T1 construct: made in house
Put plainly: PAPD5 oligonucleotide extension assay (gel), compound dose response vs ATP. Conditions: recombinant PAPD5 in vitro. It counts as biochemical. The method, then:
Candidate inhibitors are assayed at a range of concentrations in functional assays entailing extension of fluorescently-labelled RNA oligonucleotide substrates in the presence of PAPD5, followed by gel electrophoresis. […] In FIG. 5, a 20-mer 5′-fluorescently labelled RNA oligonucleotide was incubated with recombinant WT or mutant PAPD5 for 1 hour in the presence of varying concentrations of ATP, and products were visualized by polyacrylamide gel electrophoresis. It is expected that wildtype (WT) PAPD5 with PAPD5 inhibitors can have similar results. In fact, 4 compounds were selected to test the validation assay. The results were shown in FIG. 8, and were consistent with the expected results.
Each compound tested in the assay was tested at 0 μM, 5 μM, 10 μM, 50 μM, and 100 μM. At each concentration, each compound was tested at 0 μM, 10 μM, 100 μM, and 1000 μM concentration of ATP.

Test [2] has as its target T2, PARN exonuclease (Homo sapiens, UniProt O95453).
T2 sequence (O95453 1-639): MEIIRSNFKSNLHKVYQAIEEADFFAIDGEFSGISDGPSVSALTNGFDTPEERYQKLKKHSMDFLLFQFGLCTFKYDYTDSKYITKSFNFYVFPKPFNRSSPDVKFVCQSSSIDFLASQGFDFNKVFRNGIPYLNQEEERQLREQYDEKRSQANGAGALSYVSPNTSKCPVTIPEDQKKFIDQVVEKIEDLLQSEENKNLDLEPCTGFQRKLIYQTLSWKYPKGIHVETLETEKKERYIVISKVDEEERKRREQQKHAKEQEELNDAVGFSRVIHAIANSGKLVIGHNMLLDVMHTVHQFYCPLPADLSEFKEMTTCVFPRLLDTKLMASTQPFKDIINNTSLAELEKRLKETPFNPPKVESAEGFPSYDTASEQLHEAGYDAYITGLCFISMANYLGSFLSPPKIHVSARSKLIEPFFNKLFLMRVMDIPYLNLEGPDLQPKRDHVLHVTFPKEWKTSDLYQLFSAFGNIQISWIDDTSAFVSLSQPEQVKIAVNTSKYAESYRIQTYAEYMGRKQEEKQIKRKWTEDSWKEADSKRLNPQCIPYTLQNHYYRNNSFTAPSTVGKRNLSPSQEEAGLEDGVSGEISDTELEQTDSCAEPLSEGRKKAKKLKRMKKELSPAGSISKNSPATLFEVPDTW
Put plainly: Counter-screen for inhibition of PARN exonuclease. The class given is biochemical. The text has this: Although PARN and PAPD5 have opposing functions in TERC maturation and stabilization, PARN and PAPD5 are structurally related, and so molecules that inhibit one enzyme may inhibit the other.
In general terms: A counterscreen serves to expose hits that act by an unwanted route or on another target.

For test [3], the system named is TERC 3′ end processing in HEK 293 with stable shRNA-mediated knockdown of PARN. The experiment in a line: TERC 3′ end processing (3′ RACE) in PARN-deficient HEK 293 cells. It counts as cell-based. The note with it: PARN-deficient human cells (HEK 293, PARN shRNA knockdown), treated for 7 days; 10 µM and 100 μM; listed as entry 1 in table 1. The method, then: The expected amplicons representing mature TERC versus extended forms are indicated (arrows). […] HEK 293 with stable shRNA-mediated knockdown of PARN were treated for 7 days with the Table 5, entry 1 compound.

Test [4] deals with T1, PAPD5. The experiment in a line: High-throughput luminescence (KinaseGlo) RNA polyadenylation assay, ATP utilization by recombinant PAPD5. Conditions: Table 4 (entries of Table 5), ratio of luminescence with inhibitor to DMSO; for Fold-change determined at compound concentration 33 μM: 33 μM compound; for Fold-change determined at compound concentration 100 μM: 100 μM compound, higher = higher inhibition. The class given is biochemical. A digest of the protocol:
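Recombinant PAPD5 polyadenylates an oligonucleotide substrate using ATP, and remaining ATP is read by KinaseGlo luciferase luminescence. Compound was incubated for 2 h at room temperature, then with luciferase for 10 min.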
A general note: Kinase-Glo reads ATP consumption through a luciferase reaction.

T1 sequence (Q8NDF8 68-698 isoform Q8NDF8-5): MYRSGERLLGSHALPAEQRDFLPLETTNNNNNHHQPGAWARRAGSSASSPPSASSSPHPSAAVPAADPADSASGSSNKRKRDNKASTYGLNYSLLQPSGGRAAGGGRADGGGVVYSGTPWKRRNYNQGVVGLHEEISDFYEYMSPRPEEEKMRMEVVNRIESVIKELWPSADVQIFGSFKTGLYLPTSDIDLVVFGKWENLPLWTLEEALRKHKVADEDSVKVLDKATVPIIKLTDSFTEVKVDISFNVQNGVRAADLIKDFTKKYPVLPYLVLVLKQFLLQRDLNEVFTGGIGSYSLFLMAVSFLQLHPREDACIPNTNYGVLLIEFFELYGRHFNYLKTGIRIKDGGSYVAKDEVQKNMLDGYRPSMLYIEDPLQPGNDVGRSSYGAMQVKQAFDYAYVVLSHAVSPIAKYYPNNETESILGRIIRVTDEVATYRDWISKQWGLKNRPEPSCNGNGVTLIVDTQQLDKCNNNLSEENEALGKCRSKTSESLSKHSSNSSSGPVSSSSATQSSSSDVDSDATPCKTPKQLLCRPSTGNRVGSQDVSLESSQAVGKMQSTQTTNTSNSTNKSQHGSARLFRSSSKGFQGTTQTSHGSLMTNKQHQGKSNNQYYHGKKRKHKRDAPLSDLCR

For the compound `CCc1ccc2ncc(C(=O)c3ccc(C)c(C)c3)c(N3CCC(C(N)=O)CC3)c2c1` [entry 2 in Table 5, 1-[3-(3,4-dimethylbenzoyl)-6-ethylquinolin-4-yl]piperidine-4-carboxamide], the “inhibition of PAPD5 (in words)” value in test [1] was “inhibit PAPD5”. Further, the “inhibition of PARN exonuclease (in words)” value in test [2] is given as “do not inhibit PARN”.
For `CCOC(=O)c1cnc2ccc(OC(F)(F)F)cc2c1Nc1ccccc1C(=O)O` [entry 1 in Table 5, 2-[[3-ethoxycarbonyl-6-(trifluoromethoxy)quinolin-4-yl]amino]benzoic acid], the “inhibition of PAPD5 (in words)” value in test [1] is recorded as “inhibit PAPD5”. Moreover, the “inhibition of PARN exonuclease (in words)” value in test [2] was “do not inhibit PARN”.
As for `CCOC(=O)c1cnc2ccc(OC(F)(F)F)cc2c1Nc1ccccc1C(=O)O` [Entry 1, 2-[[3-ethoxycarbonyl-6-(trifluoromethoxy)quinolin-4-yl]amino]benzoic acid], the “restoration of TERC 3′ end processing / maturation (in words)” value in test [3] is “restoration of TERC maturation that is similar to that achieved by PAPD5 knockdown”.
`CCc1ccc(Cn2c(=O)c3sccc3n3c(=S)[nH]nc23)cc1` [Entry 76, 4-(4-ethylbenzyl)-1-thioxo-2,4-dihydrothieno[2,3-e][1,2,4]triazolo[4,3-a]pyrimidin-5(1H)-one]: in test [4], the “Fold-change determined at compound concentration 33 μM” value is recorded as 1.7195 and the “Fold-change determined at compound concentration 100 μM” value came out at 1.423.
With `CC(C)c1ccc(C2CC(=O)N3CN(C4CCCCC4)CSC3=C2C#N)cc1` (stereo not drawn) [Entry 195, 3-cyclohexyl-6-oxo-8-(4-propan-2-ylphenyl)-2,4,7,8-tetrahydropyrido[2,1-b][1,3,5]thiadiazine-9-carbonitrile], in test [4], the “Fold-change determined at compound concentration 33 μM” value is 1.072 and the “Fold-change determined at compound concentration 100 μM” value is 1.228.
The matching figures for `CC(Oc1ccc2c3c(c(=O)oc2c1)CCC3)C(=O)O` (stereo not drawn) [Entry 131, 2-[(4-Oxo-1,2,3,4-tetrahydrocyclopenta[c]chromen-7-yl)oxy]propanoic acid]: 1.195 and 1.653.
The matching figures for `Cc1cc(=O)oc2cc(OCC(=O)Nc3ccc(O)c(C(=O)O)c3)ccc12` [Entry 130, 2-hydroxy-5-[[2-(4-methyl-2-oxochromen-7-yl)oxyacetyl]amino]benzoic acid]: 1.086 and 1.212.
The matching figures for `Cc1ccc(Cl)cc1NC(=O)c1oc2c(c1C)-c1[nH]ncc1CC2` [Entry 174, N-(5-chloro-2-methylphenyl)-8-methyl-4,5-dihydro-1H-furo[2,3-g]indazole-7-carboxamide]: 1.278 and 1.87.
